The source of these data is patent publication US7887599B2, “Methods of use of biodegradable injectable implants” (priority 2001, dated 2011).

The conditions of data set [1]: cited from earlier work.
Data set [2] has as its system skin. Nature of the data set: Injection of GA alone, re-hydrating effect on the skin. Type of data set: in vivo, human.
Data set [3] relates to skin. The conditions noted are these: documented; cited from earlier work.
Data set [4] concerns guinea pigs. As to the kind of experiment: Preliminary test of glycolic acid concentration for intradermal injections in guinea pigs.
From the text: (§1) In a preliminary test, 39 guinea pigs were used to define product concentration for intradermal injections. All were adult animals and sex was not considered. They were divided in 4 different cages, each containing 9, 10, 10 and 10 animals. […] Evaluations were taken after the 3rd and 7th day.
Data set [5] has as its system human patients. The conditions noted are these: in comparison to the retinoids (Personelli); cited from earlier work.
Data set [6] concerns guinea pigs. The conditions noted are these: guinea pig, in vivo.
From the text: as §1
Data set [7] has as its system human patients. As to the kind of experiment: Intradermal application of glycolic acid in human patients. Type of data set: in vivo. The conditions noted are these: 35 human patients, intradermal application of 5 ml at 0.01%.

Structures are written as SMILES.

Take `OC[C@@H](O)[C@@H](O)[C@H](O)[C@H](O)CO` [D-mannitol]: in data set [1], the solubility in water entry is “readily soluble”.
`O=C(O)CO` [glycolic acid]: the “re-hydrating effect of the skin” value with skin [2] is reported as “remarkable re-hydrating effect”. Further, the “increase in skin moisture” value with skin [3] is 300%. The tissue finding result with guinea pigs [4] (0.1 ml at 0.1%, 3rd day) was “tissue necrosis”; in the data set on guinea pigs [4] (0.1 ml at 0.1%, 7th day) it was “ulcer”; in the data set with guinea pigs [4] (0.1 ml at 0.2%, 3rd day) it was “moderate hyperaemia and edema”; with guinea pigs [4] (0.1 ml at 0.2%, 7th day) it was “normal tissue (regular)”; with guinea pigs [4] (0.1 ml at 0.3%, 3rd day) it was “evident hyperaemia edema”; in the data set with guinea pigs [4] (0.1 ml at 0.3%, 7th day), “epydermolyse and edema”. Moreover, the local toxicity result with human patients [5] is listed as “low local toxicity”. The “systemic effect or comedomic action” value in the data set with human patients [5] is reported as “no systemic effect or comedomic action”. In addition, in the data set on guinea pigs [6], the “animals showing a minimal oedema and hyperaemia” value worked out at 40%. In addition, the “animals with no edema and no hyperaemia” value in the data set on guinea pigs [6] is given as 60%. Also, the ideal dose in the data set with guinea pigs [6] worked out at 0.01%. Further, in the data set on human patients [7], the “adverse reactions in tissues (hyperemia, edema or discreet ecchymosis)” value is reported as “no adverse reactions”.
